Source: patent US20150025154A1, “OPHTHALMIC COMPOSITION” (ROHTO PHARMACEUTICAL CO., LTD., priority 2012, published 2015)

Legend:
Format in all cases: physicochemical
[1] = Residual ratio of GGA in eye drops held in various plastic or glass containers, 40° C., 75% RH, 2 hours; settings: Table 4, various container materials
Experimental: (§1) In accordance with the measurement conditions for the elution test described in PFSB/ELD Notification No. 0412007 “teprenone 100 mg/g fine granule”, the GGA concentration of each eye drop was determined from the area value of the 5Z-mono-cis form (Ac) and the area value of the all-trans form (At) using Japanese pharmacopoeia “teprenone reference standard (all-trans form:5Z-mono-cis form=about 6:4 (weight ratio), Pharmaceutical and Medical Device Regulatory Science Society of Japan)” or teprenone (Wako Pure Chemical Industries) as a reference standard under the HPLC measurement conditions described below. For the eye drop containing teprenone (all-trans form:5Z-mono-cis form=3:2 (weight ratio)), the GGA content was calculated by summing the amounts of the all-trans form and the 5Z-mono-cis form. […]
Five mL of each of the eye drops was poured into various plastic or glass containers (volume: 10 to 15 mL) with a glass volumetric pipette and the containers were sealed. […] The all-trans form content (g/100 mL) in each of the eye drops was quantified under the HPLC conditions described above immediately after the production and after being left to stand for a predetermined period of time, and the residual ratio (%) was calculated.

[2] = Test for residual ratio of GGA No. 1: storage of eye drops in glass or PET containers; settings: Tables 1 to 3, glass and PET containers
Experimental: as §1
A polyethylene terephthalate container (8 mL) (the container for Rohto Dryaid EX, Rohto Pharmaceutical) was completely filled with each of the eye drops in an aseptic manner. […] The teprenone or all-trans form content (g/100 mL) in each of the eye drops was quantified under the HPLC conditions described above immediately after the production and after being left to stand for a predetermined period of time, and the residual ratio (%) was calculated. […]

[3] = Test for residual ratio of GGA No. 2: eye drops in LDPE or HDPE eye drop containers, 40° C., 75% RH; settings: Table 6, LDPE and HDPE eye drop containers
Experimental: To a surfactant (POE castor oil and POE hydrogenated castor oil 60) warmed to 65° C., the all-trans form and optionally ascorbyl tetraisopalmitate were added and dissolved under stirring in a hot water bath at 65° C. for 2 minutes. Water at 65° C. was added and each buffer was added under stirring to give a homogeneous solution. The pH and osmotic pressure were adjusted with hydrochloric acid or sodium hydroxide.
Ten mL of each of the thus obtained eye drops was poured into a 13 mL eye drop container (material: low density polyethylene or high density polyethylene; shape: the same as that of the container for Namida Rohto Dry Eye (trade name) (Rohto Pharmaceutical)) with a glass volumetric pipette and the container was sealed.
For these eye drops, the stability test was performed by leaving them to stand in the upright position at 40° C., 75% RH for 2 hours, 8 hours, and 24 hours. The all-trans form content (g/100 mL) in each of the eye drops was quantified by HPLC immediately after the production and after being left to stand for a predetermined period of time, and the residual ratio (%) was calculated.

## CCCCCCCCCCCCCCCC(=O)OC/C=C(C)/C=C/C=C(C)/C=C/C1=C(C)CCCC1(C)C [retinol palmitate]
[1]
  Effect of added fat-soluble antioxidant on loss of the GGA content: greatly reduced the loss of the GGA content

## Cc1cc(C(C)(C)C)c(O)c(C(C)(C)C)c1 [BHT, butylhydroxytoluene]
[2]
  Effect of added fat-soluble antioxidant on loss of the GGA content: greatly reduced the loss of the GGA content

## CCCCCCCCC(CCCCCC)C(=O)OC[C@H](OC(=O)C(CCCCCC)CCCCCCCC)[C@H]1OC(=O)C(OC(=O)C(CCCCCC)CCCCCCCC)=C1OC(=O)C(CCCCCC)CCCCCCCC (stereo partly drawn) [ascorbyl tetraisopalmitate]
[3]
  Effect of added fat-soluble antioxidant on adsorption of GGA to the container wall: reduced adsorption of GGA to the wall of the containers in a dose-dependent manner
